Where two headings read alike, the source gives them in different places.

Assay [1] addresses T1, α-glucosidase (Saccharomyces cerevisiae, UniProt P53341). As to conditions: cited from earlier work.
For assay [2], the target named is T1, α-glucosidase. The assay is described as follows: inhibition kinetics of α-glucosidase, Lineweaver–Burk double-reciprocal plots. As to conditions: compound 1 at 0.5 and 0.7 mM, compound 2 at 0.2 and 0.3 mM; for inhibition type: ρNPG 0.25-4.0 mM. Format: biochemical. As for the experimental part:
Louis, MO, USA) in the same PBS buffer. […] After being thoroughly mixed, the mixture was placed in a 37 °C constant temperature incubator for 15 min. […] Then, 80 μL of 200 mM Na2CO3 solution was added to complete the reaction. Finally, the absorbance value (OD) was measured at 405 nm using a microplate reader. The experiment used 20 μL of PBS as the background control instead of 20 μL of α-glucosidase solution. Additionally, 20 μL of PBS was used as the negative control instead of the test sample. […] Each treatment was repeated three times. The α-glucosidase inhibitory activity was calculated using the following formula: Inhibitory rate (%) = [(An - As)/An] × 100, where As represents the absorbance of the sample reaction solution, and An represents the absorbance of the negative control. The IC50 values, the inhibitor concentration in mM that inhibits 50% of the enzyme activity, were determined graphically by interpolating from the inhibitions determined with different concentrations of compounds, through statistical analysis using SPSS 18.0. […] For compound 1, concentrations of 0.5 mM and 0.7 mM were used, while for compound 2, concentrations of 0.2 mM and 0.3 mM were selected. […] The enzyme reaction was performed using the conditions described above. Inhibition types were analyzed using double-reciprocal plots generated with Origin 2021.

Assay [3] deals with small intestinal α-glucosidase. Set-up: method as in PMID 26840363. Particulars: small intestinal α-glucosidase in rats; cited from earlier work.
Another assay deals with MAPKAP kinase-2. Set-up: method as in PMID 16124774. Particulars: weak inhibitors; cited from earlier work.
A further assay relates to HeLa cell line. Set-up: method as in PMID 19190740. Particulars: at a concentration of 10 μg/mL; cited from earlier work.

T1 sequence (P53341 whole entry): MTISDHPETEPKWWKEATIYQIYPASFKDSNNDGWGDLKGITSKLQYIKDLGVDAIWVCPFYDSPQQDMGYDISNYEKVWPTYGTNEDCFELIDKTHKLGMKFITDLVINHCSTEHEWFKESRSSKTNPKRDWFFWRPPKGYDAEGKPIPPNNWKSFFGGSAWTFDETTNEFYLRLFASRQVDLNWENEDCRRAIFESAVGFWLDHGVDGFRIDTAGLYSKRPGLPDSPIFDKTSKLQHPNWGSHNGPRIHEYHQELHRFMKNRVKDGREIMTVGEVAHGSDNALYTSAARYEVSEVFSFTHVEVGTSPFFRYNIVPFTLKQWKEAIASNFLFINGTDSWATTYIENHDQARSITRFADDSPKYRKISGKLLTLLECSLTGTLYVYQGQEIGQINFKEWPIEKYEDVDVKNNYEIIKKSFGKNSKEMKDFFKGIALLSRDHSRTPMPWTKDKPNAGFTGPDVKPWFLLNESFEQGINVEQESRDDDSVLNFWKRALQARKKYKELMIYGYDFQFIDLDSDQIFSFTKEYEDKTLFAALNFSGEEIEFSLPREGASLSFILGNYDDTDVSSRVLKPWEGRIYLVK

As to `Cc1nc2c(cc(O)c3c(=O)c4ccccc4oc32)o1` [5-hydroxy-2-methyl-6H-xantheno[4,3-d]oxazol-6-one], on α-glucosidase [1] (kinetic analysis), the inhibition type result was “competitive inhibitor”.

Turning to `CCCc1cc(=O)c2c(CC(=O)O)cccc2o1` [Compound 1, phaeochromycin E], on α-glucosidase [2], the “effect on Km” value is “Km decreases”, the “effect on Vmax” value is recorded as “decrease in Vmax” and the inhibition type entry was “uncompetitive inhibitor”.

In the case of `CCCc1cc(=O)c2c(CC(=O)CC(C)O)cccc2o1` (stereo not shown) [Compound 2, phaeochromycin D], at α-glucosidase [2], the “effect on Km” value is “keeping the Km constant”, the “effect on Vmax” value is recorded as “decreasing the 1/Vmax” and the inhibition type entry is “non-competitive inhibitor”.

As to `NS(=O)(=O)c1ccc(N/N=C/c2coc3ccccc3c2=O)cc1` [Compound 4d], the inhibition type entry on α-glucosidase [1] (Lineweaver–Burk plot analysis) was “non-competitive mode”.

With `O=C(OC[C@H]1O[C@@H](OC(=O)c2cc(O)c(O)c(OC(=O)c3cc(O)c(O)c(O)c3)c2)[C@H](OC(=O)c2cc(O)c(O)c(OC(=O)c3cc(O)c(O)c(O)c3)c2)[C@@H](OC(=O)c2cc(O)c(O)c(OC(=O)c3cc(O)c(O)c(O)c3)c2)[C@@H]1OC(=O)c1cc(O)c(O)c(OC(=O)c2cc(O)c(O)c(O)c2)c1)c1cc(O)c(O)c(OC(=O)c2cc(O)c(O)c(O)c2)c1` [Gallotannin], the inhibition type result on α-glucosidase [1] is recorded as “parabolic mixed-type inhibition”.

In the case of `OC[C@@H]1[C@@H](O)[C@H](O)C[S@@+]1C[C@@H](O)[C@@H](O)[C@H](O)[C@@H](O)CO` [Neoponkoranol], in assay [3], the inhibition type entry is reported as “strong competitive inhibition”.

By IC50 is commonly meant the concentration that inhibits the measured activity by half. In the case of `CCCc1cc(=O)c2c(Cc3cc(O)cc(=O)o3)cccc2o1` [Phaeochromycin C], the IC50 on MAPKAP kinase-2 is 130 µM.

With `CC(=O)CCc1ccc(O)cc1` [Raspberry ketone], the inhibition type entry on α-glucosidase [1] (binding reversibly and quickly) is listed as “non-competitively”.

As for `O=c1c(-c2ccc(O)cc2)coc2cc(O)ccc12` [daidzein], the inhibition type entry at α-glucosidase [1] is recorded as “non-competitive action”.

For the compound `O=c1c(-c2ccc(O)cc2)coc2cc(O)cc(O)c12` [genistein], the inhibition type entry at α-glucosidase [1] is “non-competitive action”.

Consider Phaeochromycin A, for which the IC50 on MAPKAP kinase-2 was 39 µM.

As to phaeochromycin H, the “inhibitory rate against the HeLa cell line” value with HeLa cell line is given as 46.0%.

Source of the values: publication PMC12073238, “The α-Glucosidase Inhibition Activities of Phaeochromycins D and E Isolated from Marine Streptomyces sp. FJ0218” (Molecules, 2025).
